{"source": "paper PMC11271178", "about": "“Effect of Added Salt on the RAFT Polymerization of 2-Hydroxyethyl Methacrylate in Aqueous Media” (Macromolecules, 2024)", "key": {"[1]": {"conditions": "cited from earlier work"}, "[2]": {"assay": "Aqueous solubility of HEMA monomer vs added NaCl at 70 °C (gravimetric titration, visual end point)", "type": "physicochemical", "description": "Deionized water (2.0 g) was added to a pre-weighed vial equipped with a magnetic stir bar. This vial was placed in an oil bath set at 70 °C and allowed to equilibrate for 20 min. HEMA was added to a second pre-weighed vial and then added dropwise to the first vial at 70 °C. After the addition of each drop of HEMA, the aqueous HEMA mixture was stirred at 70 °C for 1 min. Visual inspection was used to judge the point at which the HEMA monomer droplets were no longer fully dissolved. […] This experiment was repeated with the deionized water being replaced with a series of aqueous salt solutions (up to 3 M NaCl).\nHowever, its aqueous solubility strongly depends on the presence of salt. For example, the digital photograph shown in Figure 1 (blue frame) clearly illustrates the transition from fully soluble HEMA in 0–0.6 M NaCl to (partially) immiscible HEMA in the presence of 1.5 M NaCl. This change in physical appearance is used as the “end point” for a series of gravimetric titrations to determine the aqueous solubility of HEMA in various salt solutions at 70 °C. For example, HEMA solubility is reduced from 1305 g dm^–3 in 0.75 M NaCl to just 93 g dm^–3 in 3 M NaCl (see Figure 1). In principle, this should be sufficient for the mode of polymerization to switch from an aqueous dispersion polymerization to an aqueous emulsion polymerization. Moreover, added salt was also expected to lower the critical DP at which PHEMA chains become water-insoluble. Combining the salt-tunable aqueous solubility of HEMA with a suitable salt-tolerant precursor such as PMPC should facilitate a systematic study of the effect of added salt on the polymerization kinetics and copolymer morphology."}}}
{"smiles": "C=C(C)C(=O)OCC(F)(F)F", "note": "[2,2,2-trifluoroethyl methacrylate]", "values": [{"measurement": "aqueous solubility of monomer", "setting": "[1]", "value": "≤ 1", "unit": "g dm^–3"}]}
{"smiles": "C=C(C)C(=O)OCCO", "note": "[HEMA, 2-hydroxyethyl methacrylate]", "values": [{"measurement": "aqueous solubility of HEMA", "setting": "[2]; 0.75 M NaCl, 70 °C", "value": 1305, "unit": "g dm^–3"}, {"measurement": "aqueous solubility of HEMA", "setting": "[2]; 3 M NaCl, 70 °C", "value": 93, "unit": "g dm^–3"}, {"measurement": "solubility at 1 min", "setting": "[2]; aqueous 1.5 M NaCl solution, water, 1.5 M NaCl, 70 °C, homogeneous at lower, emulsion at higher concentration, read-out: aqueous solubility of HEMA (homogeneous mixture vs emulsion)", "value": "≥ 171", "unit": "mg/mL"}, {"measurement": "miscibility of HEMA with water", "setting": "[2]; no added salt", "value": "fully miscible with water in all proportions"}, {"measurement": "miscibility of HEMA with water", "setting": "[2]; up to 0.6 M NaCl, 70 °C", "value": "water-miscible in all proportions"}]}
{"smiles": "C=Cc1ccccc1", "note": "[styrene]", "values": [{"measurement": "aqueous solubility of monomer", "setting": "[1]", "value": "≤ 1", "unit": "g dm^–3"}]}
{"smiles": "C=C(C)C(=O)OCc1ccccc1", "note": "[benzyl methacrylate]", "values": [{"measurement": "aqueous solubility of monomer", "setting": "[1]", "value": "≤ 1", "unit": "g dm^–3"}]}
